In patent US20150140123A1, “Protein expression analyses for identifying genotoxic compounds” (Merck Patent GmbH, priority 2012, published 2015):
Where a name gives a salt, the structure may show the parent alone. Read-outs that look alike come from different tables or passages of the source.

Tested on: HepG2 cells
Assay: High content imaging cytotoxicity parameters: selected cell count per valid field (SCC) and CMFDA cytoplasm average intensity
Experimental: HepG2 cells (Order No. HB-8065, Lot. 58483209, ATCC, Manassas, USA) were cultured in DMEM/F12 with L-Glutamine and 15 mM Hepes supplemented with 10% (v/v) FBS, 1% (v/v) penicillin (10 kU/ml)/streptomycin (10 mg/ml) solution, 0.1% (v/v) gentamicin (50 mg/ml), and 1 mM sodium pyruvate at 37° C. and 5% CO2 in culture flasks. Depending on the experiment, an appropriate number of cells were seeded onto plates after detaching of the cells using trypsin and cells were cultured at 37° C. and 5% CO2 for 24 h prior to treatment. All experiments were performed three times with cells of passages 4-20.
Cells were seeded onto black Poly-D-Lysin coated 96-well-plates (BD Biocoat, Franklin Lakes, USA) (0.02×10^6 cells/well) and left 24 h for adherence and then treated with test compounds at a maximum concentration of 1 mM which is recommended by the ICH S2(R1) guideline (EMA, 2011). For each compound, nine concentrations were tested with 2-fold serial dilutions. DMSO 1% (v/v) served as vehicle control for the experiments. The treatment procedure was different for direct-genotoxic and pro-genotoxic compounds. The treatment for direct genotoxic compounds was ongoing and was repeated daily over 48 h. Pro-genotoxic compounds were incubated for 6 h together with metabolic activation system (to limit the cytotoxic effect of the S9-mixture). After this period, cells were washed with cell media followed by 18-repeated daily over 48 h. The metabolic activation system used consisted of the following components and concentrations: 8 mM MgCl2, 32.8 mM KCl, 12 mM NADPH, 124 mM phosphate buffer and 2500 pmol/ml cytochrome P450 (CYP) content in the pre-mixture corresponding to 2.4 mM MgCl2, 9.8 mM KCl, 3.6 mM NADPH, 37.2 mM phosphate buffer, and 750 pmol/ml CYP as final concentrations after dilution 1:3.33 with cell culture media.
After treatment, cells were rinsed with PBS (Gibco Invitrogen, Karlsruhe, Germany), and then stained with 10 μM CellTracker Green 5-Chloromethylfluorescein Diacetate (CMFDA) (Invitrogen, Karlsruhe, Germany) in cell culture media for 30 min. CMFDA is per se non-fluorescent and is hydrolyzed by esterase in viable cells to a fluorescent-dye. The reaction with thiol groups leads to a cell-impermeable fluorescent-dye-adduct. The esterase activity can be used as an indicator for viability of cells (Papadopoulos et al., 1994, J Immunol Methods 177, 101-11). Afterwards, cells were washed with PBS and fixed with 3.7% Formaldehyde (Sigma-Aldrich, Taufkirchen, Germany) in PBS for 20 min. After that, cells were washed with PBS and blocked and permeabilized with 2% donkey serum (Millipore, Schwalbach, Germany) and 0.25% Triton X-100 (Sigma-Aldrich, Taufkirchen, Germany) in PBS for 30 min. Primary antibodies were diluted in Blocking/Permeabilization solution to final concentrations of 4 μg/ml anti-p-Chk1 (Ser345) goat polyclonal antibody IgG (santa cruz, Santa Cruz, USA), 4 μg/ml anti-p-ATM (Ser1981) mouse monoclonal antibody IgG1K (Millipore, Schwalbach, Germany) and added to the cells. After incubation for 16-18 h, cells were washed with 0.05% Tween 20 (Calbiochem, Darmstadt, Germany) in PBS, and the secondary antibody/16 μM Hoechst staining solution Blocking/Permeabilization solution was added. Secondary antibodies were diluted 1:400 (Alexa Fluor 555 donkey anti-goat, Alexa Fluor 647 donkey anti-mouse, Invitrogen, Karlsruhe, Germany). After an incubation of 1 h, followed by two additional washing steps with 0.05% Tween 20, cells were washed with PBS and finally PBS was added and cells were measured.
Image acquisition was performed on the ArrayScan VTI HCS Reader (Cellomics, Pittsburgh, USA) using a 20× objective. To detect enough cells, 50 images starting at the middle of each well were gathered.
• Channel 1: selected cell count per valid field • Channel 2: CMFDA cytoplasm average intensity • Channel 3: p-Chk1 (Ser345) nucleus average intensity • Channel 4: p-ATM (Ser1981) nucleus average intensity

[1] = HepG2 cells, 48 h, CMFDA cytoplasm average intensity, with rat liver S9 (+S9)
[2] = HepG2 cells, 48 h, CMFDA cytoplasm average intensity, without metabolic activation (−S9)
[3] = HepG2 cells, 48 h, selected cell count per valid field, with rat liver S9 (+S9)
[4] = HepG2 cells, 48 h, selected cell count per valid field, without metabolic activation (−S9)

Compound | CMFDA +S9 highest conc. <50% cytotox. over control (human) [µM] | CMFDA −S9 highest conc. <50% cytotox. over control (human) [µM] | SCC +S9 highest conc. <50% cytotox. over control (human) [µM] | SCC −S9 highest conc. <50% cytotox. over control (human) [µM] | CMFDA +S9 highest conc. <50% cytotox. over control (human, 48 h) [µM] | CMFDA −S9 highest conc. <50% cytotox. over control (human, 48 h) [µM] | SCC +S9 highest conc. <50% cytotox. over control (human, 48 h) [µM] | SCC −S9 highest conc. <50% cytotox. over control (human, 48 h) [µM] | other results
C[N+](C)(C)CCCl.[Cl-] [(2-chloroethyl)trimethyl-ammonium chloride] | 1000 | 1000 | 1000 | 1000 |  |  |  |  | 
CCCC(O)C(CC)CO (centres unmarked) [2-Ethyl-1,3-hexanediol] |  |  |  |  | 1000 | 1000 | 1000 | 1000 | 
O=C1NS(=O)(=O)c2ccccc21.[Na] [Sodium saccharin] | 1000 | 1000 | 1000 | 1000 |  |  |  |  | 
Nc1ccc(Cl)cc1 [p-chloroaniline] | 1000 | 1000 | 1000 | 1000 |  |  |  |  | 
CC(C)(C)c1cc(O)ccc1O [Tertiary-butylhydroquinone] |  |  |  |  | 1000 | 125 | 1000 | 125 | 
Cc1c2ccccc2c(C)c2c1ccc1ccccc12 [7,12-Dimethylbenz[a]anthracene] | 1000 | 250 | 500 | 125 |  |  |  |  | 
Cn1c(N)nc2ncc(-c3ccccc3)cc21 [PhIP•HCl, 2-Amino-1-methyl-6-phenylimidazo[4,5-f]pyridine] |  |  |  |  |  |  |  |  | CMFDA +S9 highest conc. <50% cytotox. over control [1]: 1000 µM; CMFDA −S9 highest conc. <50% cytotox. over control [2]: 500 µM; SCC +S9 highest conc. <50% cytotox. over control [3]: 1000 µM; SCC −S9 highest conc. <50% cytotox. over control [4]: 500 µM
NC(N)=O [Urea] |  |  |  |  |  |  |  |  | CMFDA +S9 highest conc. <50% cytotox. over control [1]: 1000 µM; CMFDA −S9 highest conc. <50% cytotox. over control [2]: 1000 µM; SCC +S9 highest conc. <50% cytotox. over control [3]: 1000 µM; SCC −S9 highest conc. <50% cytotox. over control [4]: 1000 µM
OC[C@@H](O)[C@@H](O)[C@H](O)[C@H](O)CO [D-mannitol] |  |  |  |  | 1000 | 1000 | 1000 | 1000 | 
Nc1nc[nH]n1 [Amitrole] |  |  |  |  | 1000 | 1000 | 1000 | 1000 | 
CCCCCl [n-butyl chloride] |  |  |  |  |  |  |  |  | CMFDA +S9 highest conc. <50% cytotox. over control: 1000 µM; CMFDA −S9 highest conc. <50% cytotox. over control: 1000 µM; SCC +S9 highest conc. <50% cytotox. over control: 1000 µM; SCC −S9 highest conc. <50% cytotox. over control: 1000 µM
COS(C)(=O)=O [Methylmethane sulfonate] |  |  |  |  | 250 | 500 | 500 | 250 | 
Aflatoxin B1 |  |  |  |  |  |  |  |  | CMFDA +S9 highest conc. <50% cytotox. over control: 500 µM; CMFDA −S9 highest conc. <50% cytotox. over control: 500 µM; SCC +S9 highest conc. <50% cytotox. over control: 500 µM; SCC −S9 highest conc. <50% cytotox. over control: 31.25 µM
c1ccc2c(c1)cc1ccc3cccc4ccc2c1c34 [Benzo[a]pyrene] | 125 | 125 | 125 | 3.91 |  |  |  |  | 
CC(=O)[C@H]1CC[C@H]2[C@@H]3CCC4=CC(=O)CC[C@]4(C)[C@H]3CC[C@]12C [Progesterone] |  |  |  |  | 250 | 62.5 | 500 | 125 | 
COc1cc(/C=C/C(=O)CC(=O)/C=C/c2ccc(O)c(OC)c2)ccc1O [Curcumin] |  |  |  |  | 125 | 31.25 | 125 | 31.25 | 
OCc1ccccc1 [Benzyl alcohol] |  |  |  |  | 1000 | 1000 | 1000 | 1000 | 
C=CC(=O)OCC [Ethyl acrylate] | 1000 | 1000 | 1000 | 1000 |  |  |  |  | 
Oc1cccc(O)c1 [1,3-Dihydroxybenzene (resorcinol), 1,3-Dihydroxybenzene] |  |  |  |  | 500 | 1000 | 1000 | 1000 | 
Nc1nc(N)nc(N)n1 [Melamine] |  |  |  |  |  |  |  |  | CMFDA +S9 highest conc. <50% cytotox. over control [1]: 1000 µM; CMFDA −S9 highest conc. <50% cytotox. over control [2]: 1000 µM; SCC +S9 highest conc. <50% cytotox. over control [3]: 1000 µM; SCC −S9 highest conc. <50% cytotox. over control [4]: 1000 µM
CN(C)C(=O)Nc1cccc(C(F)(F)F)c1 [Fluometron] |  |  |  |  | 1000 | 1000 | 1000 | 500 | 
Cc1noc(NS(=O)(=O)c2ccc(N)cc2)c1C [Sulfisoxazole] |  |  |  |  | 1000 | 1000 | 1000 | 1000 | 
O=P1(N(CCCl)CCCl)NCCCO1 (centres unmarked) [Cyclophosphamide] | 62.5 | 1000 | 1000 | 1000 |  |  |  |  | 
